Blank lines part the entries; values can stand above or below the molecule they belong to.
Tests used:
hCG protein [1] = biological target: T1, hCG protein (Homo sapiens, UniProt P01215+P0DN86); assay: SPR kinetics of peptide-hCG binding, GO-based chip, PBS buffer; details: hCG 10 pM-1 nM, 30 μL/min, 1:1 Langmuir model
hCG protein [2] = biological target: T1, hCG protein; assay: SPR kinetics of peptide-hCG binding, carboxyl-GO chip, clinical serum samples
[3] = test system: peptide probe immobilized on carboxyl-GO chip; assay: SPR selectivity test with interfering proteins, spiked 10% serum; assay type: binding; details: protein 500 pM, 60 μL/min, measured six times
[4] = test system: peptide probe immobilized on carboxyl-GO chip; assay: SPR selectivity test with interfering proteins, PBS buffer; assay type: binding; details: for interference signal: 500 pM, carboxyl-GO-based SPR aptasensor, PBS and spiked 10% serum; for average SPR angle shift: protein 500 pM, PBS buffer, 60 μL/min, measured six times

T1 sequence (P01215 25-116, other chains not shown): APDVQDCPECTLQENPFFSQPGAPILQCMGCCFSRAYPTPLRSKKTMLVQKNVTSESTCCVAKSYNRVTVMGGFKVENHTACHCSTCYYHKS

KA (hCG protein [1]): 1.41e+10 M⁻¹
ka (hCG protein [1]): 7.32 ×10^6 M^−1S^−1
kd (hCG protein [1]): 5.22 ×10^−4 S^−1
binding constant KA (hCG protein [2]; serum FDSW-1, 19 weeks): 7.22e+10 M⁻¹
binding constant KA (hCG protein [2]; serum FDSW-2, 14 weeks): 9.39e+10 M⁻¹
binding constant KA (hCG protein [2]; serum FDSW-3, 12 weeks): 2.033e+11 M⁻¹
binding constant KA (hCG protein [2]; serum FDSW-4, 12 weeks): 5.71e+10 M⁻¹
binding constant KA (hCG protein [2]; serum FDSW-5, 16 weeks): 5.14e+10 M⁻¹
binding constant KA (hCG protein [2]; serum FDSW-6, 17 weeks): 1.39e+11 M⁻¹
binding constant KA (hCG protein [2]; serum NPW-1, 15 weeks): 2.819e+11 M⁻¹
binding constant KA (hCG protein [2]; serum NPW-2, 12 weeks): 2.763e+11 M⁻¹
binding constant KA (hCG protein [2]; serum NPW-3, 14 weeks): 1.28e+10 M⁻¹
binding constant KA (hCG protein [2]; serum NPW-4, 17 weeks): 1.48e+10 M⁻¹
Molecule: H-PPLRINRHILTR-OH [peptide]

Molecule: bovine serum albumin [BSA]
average SPR angle shift [3]: 2.60 m^o
interference signal [4]: close to that of a blank solution
average SPR angle shift [4]: 1.31 m^o

Molecule: pregnancy-associated plasma protein A [PAPP-A]
average SPR angle shift [3]: 2.42 m^o
interference signal [4]: close to that of a blank solution
average SPR angle shift [4]: 1.37 m^o

Molecule: pregnancy-associated plasma protein A2 [PAPP-A2]
average SPR angle shift [3]: 2.51 m^o
interference signal [4]: close to that of a blank solution
average SPR angle shift [4]: 2.39 m^o

B1: human cytokeratin 19 (protein, UniProt P08727 1-400, looked up)
Keratin, type I cytoskeletal …: MTSYSYRQSSATSSFGGLGGGSVRFGPGVAFRAPSIHGGSGGRGVSVSSARFVSSSSSGAYGGGYGGVLTASDGLLAGNEKLTMQNLNDRLASYLDKVRALEAANGELEVKIRDWYQKQGPGPSRDYSHYYTTIQDLRDKILGATIENSRIVLQIDNARLAADDFRTKFETEQALRMSVEADINGLRRVLDELTLARTDLEMQIEGLKEELAYLKKNHEEEISTLRGQVGGQVSVEVDSAPGTDLAKILSDMRSQYEVMAEQNRKDAEAWFTSRTEELNREVAGHTEQLQMSRSEVTDLRRTLQGLEIELQSQLSMKAALEDTLAETEARFGAQLAHIQALISGIEAQLGDVRADSERQNQEYQRLMDIKSRLEQEIATYRSLLEGQEDHYNNLSASKVL
average SPR angle shift [3]: 1.74 m^o
interference signal [4]: close to that of a blank solution
average SPR angle shift [4]: 1.65 m^o

Source: paper PMC7594198 (International Journal of Nanomedicine, 2020)
